These results are taken from publication PMC2033360, “Effects of a new antioestrogen, idoxifene, on cisplatin- and doxorubicin-sensitive and -resistant human ovarian carcinoma cell lines” (British Journal of Cancer, 1994).

Experiment [1] addresses T1, calmodulin-dependent cyclic AMP phosphodiesterase (Homo sapiens, UniProt P0DP23). The experiment can be described thus: Inhibition of calmodulin-dependent cyclic AMP phosphodiesterase. In kind it is biochemical. To be noted: unpublished data of the authors. The text has this:
(§1) Sary Pyroidno-4-iodotamoxifen (idoxifene) is a new non-steroidal antioestrogen currently undergoig phase I clnical evaluation. […] One agent that has featured in studies of both doxorubicin and cilatin resist- ance has been the extensively used antioestrogen tamoxifen. […] Tlhe purposes of this study were 3-fold. Initially, using a series of tamoxifen analogues of known inhibitory constants for calmodulin, the effect of increasing calmodulin inhibition on cytotoxicity against four human ovarian carcnoma cell lines was determined. […] Materials and mehod Drugs and chemicals The structures of tamoxifen and the various analogues of tamoxifen used are illustrated in Figure 1. […] Calmidazolium (R24571), Correspondence: L.R. Kelland, Drug Development Section, The Institute of Cancer Research, Block E, 15 Cotswold Road, Sutton, Surrey SM2 5NG, UK. […] Cytotoxicity data were then fitted to regression lines, and the concentration of each drug which produced a given level of cytotoxicity (fractional effect, Fa) alone or in combination was determined. Combination index (CI) for a given Fa was calculated as: CI = d' + td D-1 + D2 where DI and D2 are the doses of drugs 1 and 2, which by themselves produce a given Fa (i.e. IC5o); d' and d2 are the doses which produce the same Fa in combination. […]

Experiment [2] deals with 41McisR6 cells. The experiment can be described thus: SRB cytotoxicity assay, 41McisR6. In kind it is cell-based, human. To be noted: acquired cisplatin-resistant line versus parent. On the technique in general: The SRB assay estimates cell density from bound dye.
Experiment [3] deals with CH1cisR6 cells. Particulars: acquired cisplatin-resistant line versus parent.
In experiment [4] the test system is CH1 cells. The experiment can be described thus: DNA interstrand cross-link repair by alkaline elution, CH1. In kind it is cell-based, human.
Text: as §1

Experiment [5] has as its system CH1cisR6 cells. The experiment can be described thus: DNA interstrand cross-link repair by alkaline elution, CH1cisR6. In kind it is cell-based, human.
Text: as §1

The next experiment deals with 41M cells. The experiment can be described thus: SRB cytotoxicity assay, 41M. Particulars: Homo sapiens, read-out: 96 h IC50, doxorubicin cytotoxicity, 41M.
Text: as §1

For the next experiment, the system named is 41MdoxR cells. The experiment can be described thus: SRB cytotoxicity assay, 41MdoxR. Particulars: for Rf, resistance factor (IC50 resistant line/IC50 parent line), 41MdoxR/41M: doxorubicin resistance. The text has this: (§2) Sary Pyroidno-4-iodotamoxifen (idoxifene) is a new non-steroidal antioestrogen currently undergoig phase I clnical evaluation. […] One agent that has featured in studies of both doxorubicin and cilatin resist- ance has been the extensively used antioestrogen tamoxifen. […] Tlhe purposes of this study were 3-fold. Initially, using a series of tamoxifen analogues of known inhibitory constants for calmodulin, the effect of increasing calmodulin inhibition on cytotoxicity against four human ovarian carcnoma cell lines was determined. […] Materials and mehod Drugs and chemicals The structures of tamoxifen and the various analogues of tamoxifen used are illustrated in Figure 1. […] Calmidazolium (R24571), Correspondence: L.R. Kelland, Drug Development Section, The Institute of Cancer Research, Block E, 15 Cotswold Road, Sutton, Surrey SM2 5NG, UK. […] Briefly, the analysis compares the effects of drug combinations to the effects of individual drugs across the entire dose-effect range. Cytotoxicity data were then fitted to regression lines, and the concentration of each drug which produced a given level of cytotoxicity (fractional effect, Fa) alone or in combination was determined. Combination index (CI) for a given Fa was calculated as: CI = d' + td D-1 + D2 where DI and D2 are the doses of drugs 1 and 2, which by themselves produce a given Fa (i.e. IC5o); d' and d2 are the doses which produce the same Fa in combination. CI= I indicates zero interaction (additive cytotoxicity), CI <I indicates synergy and CI> 1 indicates antagonism (Chou computer program, Biosoft). […] All cell lines were grown as monolayers in Dulbecco's modified Eagle medium (DMEM) supplemented with 10% heat-iactivated fetal calf serum (Imperial Laboratores, Andover, UK), 50 gml-' gentamic 2.5 jg ml-' ampho- tericin B, 2 mM L-glutmie 10 jag ml- insulin and 0.5 jgmml' hydrocorisone in a 10% carbon dioxide, 90% air atmosphere. […] Assssment of cytotoxicity Tamoxifen and the analogues of tamoxifen were dissolved immediately before use in absolute ethanol at 20 mM. […]

Another experiment has as its system CH1doxR cells. Description: SRB cytotoxicity assay, CH1doxR. Particulars: for Rf, resistance factor (IC50 resistant line/IC50 parent line), CH1doxR/CH1: doxorubicin resistance.
Text: as §2

Experiment [6] relates to CH1 cells. Description: SRB cytotoxicity assay, CH1. To be noted: Homo sapiens, CH1, read-out: 96 h IC50, doxorubicin cytotoxicity, CH1.
Experiment [7] has as its system four human ovarian carcinoma cell lines. The experiment can be described thus: cells. To be noted: read-out: mean IC50 across four human ovarian carcinoma cell lines (cytotoxicity).
Text: as §1

Experiment [8] deals with 41McisR6 cells. The experiment can be described thus: Intracellular platinum accumulation (flameless atomic absorption), 41McisR6. In kind it is cell-based, human. Particulars: 2 h exposure to cisplatin alone or with 2 microM idoxifene.
Text: as §1

Experiment [9] has as its system CH1cisR6 cells. Description: Intracellular platinum accumulation (flameless atomic absorption), CH1cisR6. In kind it is cell-based, human. To be noted: 2 h exposure to cisplatin alone or with 2 microM idoxifene.
Text: as §1

Experiment [10] has as its system human ovarian carcinoma cell lines. The experiment can be described thus: Highest non-toxic concentration of the resistance modifiers, preliminary experiments. In kind it is cell-based. To be noted: <10% cell kill in any one cell line; continuous drug exposure.
Text: as §1

In experiment [11] the target is T1, calmodulin-dependent cyclic AMP phosphodiesterase. More on the design: method as in Rowlands et al., 1990. To be noted: values taken from previous determinations; ref Rowlands et al., 1990; read-out: calmodulin IC50 (inhibition of calmodulin-dependent cyclic AMP phosphodiesterase); cited from earlier work.
[12] abbreviates: after 2 h exposure to cisplatin 25 microM, removed at 2 h versus 5 h (so in the source).
Setting [13] is: after 2 h cisplatin 25 microM, removal in presence of 2 microM idoxifene.

Read-outs that look alike come from different tables or passages of the source. A value given as a limit tells only on which side of the number the result lay.

As to `CC/C(=C(/c1ccc(OCCN(C)C)cc1)c1cccc(O)c1)c1ccccc1` [3-hydroxytamoxifen], the half-inhibitory concentration (IC50) in [1] was determined as 13000 nM. For the same compound, in the experiment with 41McisR6 cells [2], the “Rf, resistance factor (IC50 resistant line/IC50 parent line), 41McisR6/41M” value (“Rf, resistance factor … 41McisR6/41M” below) was less than 1. In addition, the “Rf, resistance factor (IC50 resistant line/IC50 parent line), CH1cisR6/CH1” value (from here on “Rf, resistance factor … CH1cisR6/CH1”) in the experiment on CH1cisR6 cells [3] was less than 1.

In the case of `CC/C(=C(/c1ccc(I)cc1)c1ccc(OCCN(C)C)cc1)c1ccccc1` [4-iodotamoxifen], the “Rf, resistance factor … 41McisR6/41M” value with 41McisR6 cells [2] was less than 1. Besides, in the experiment on CH1cisR6 cells [3], the “Rf, resistance factor … CH1cisR6/CH1” value was less than 1.

For the compound `Clc1ccc(C(c2ccc(Cl)cc2)n2cc[n+](CC(OCc3ccc(Cl)cc3Cl)c3ccc(Cl)cc3Cl)c2)cc1` (stereo not drawn) [calmidazolium], the “Rf, resistance factor … 41McisR6/41M” value in the experiment on 41McisR6 cells [2] was less than 1. Besides, the “Rf, resistance factor … CH1cisR6/CH1” value in the experiment with CH1cisR6 cells [3] is reported as less than 1.

As to `N.N.[Cl][Pt][Cl]` [cisplatin, cis-diamminedichloroplatinum (II)], the “removal of cross-links, CH1” value in the experiment with CH1 cells [4] (setting [12]) turned out to be 15%. Also, the “removal of cross-links, CH1cisR6” value in the experiment on CH1cisR6 cells [5] (setting [12]) was found to be 90%.

For the compound `COc1cccc2c1C(=O)c1c(O)c3c(c(O)c1C2=O)C[C@@](O)(C(=O)CO)C[C@@H]3O[C@H]1C[C@H](N)[C@H](O)[C@H](C)O1` [doxorubicin], the IC50 in the experiment on 41M cells came to 39 nM; with 41MdoxR cells (Homo sapiens, read-out: 96 h IC50, doxorubicin cytotoxicity, 41MdoxR), 280 nM; with CH1doxR cells (Homo sapiens, read-out: 96 h IC50, doxorubicin cytotoxicity, CH1doxR) it was 460 nM; in the experiment with CH1 cells [6], 5.3 nM. The results for the “Rf, resistance factor (IC50 resistant line/IC50 parent line), 41MdoxR/41M” value in the experiment on 41MdoxR cells and with 41MdoxR cells (listed as Doxorubicin) were “approximately 7” and 7.2, respectively. Further, the results for the “Rf, resistance factor (IC50 resistant line/IC50 parent line), CH1doxR/CH1” value in the experiment on CH1doxR cells and with CH1doxR cells (listed as Doxorubicin) were approximately 90 and 87, respectively.

As for `CC/C(=C(\c1ccc(I)cc1)c1ccc(OCCN2CCCC2)cc1)c1ccccc1` [idoxifene, Pyrrolidino-4-iodotamoxifen], the 50% inhibitory concentration (IC50) in experiment [7] is 4500 nM; in experiment [11] it was 1400 nM. The “Rf, resistance factor … 41McisR6/41M” value in the experiment on 41McisR6 cells [2] is listed as less than 1. Also, in the experiment on 41McisR6 cells [8], the “effect on platinum accumulation, 41McisR6” value is recorded as “no significant difference”. In addition, in the experiment on CH1cisR6 cells [9], the “effect on platinum uptake, CH1cisR6” value is reported as “no difference in uptake”. Also, the “effect on rate of DNA interstrand cross-link (ISC) removal, CH1” value with CH1 cells [4] (setting [13]) was “did not markedly affect”. Besides, the “effect on rate of DNA interstrand cross-link (ISC) removal, CH1cisR6” value in the experiment on CH1cisR6 cells [5] (setting [13]) was “did not markedly affect”. Further, the highest non-toxic concentration in experiment [10] is 2 µM. Besides, in the experiment with CH1cisR6 cells [3], the “Rf, resistance factor … CH1cisR6/CH1” value was less than 1.

Consider `CC/C(=C(\c1ccccc1)c1ccc(OCCN(C)C)cc1)c1ccccc1` [tamoxifen], for which the 50% inhibitory concentration (IC50) in experiment [7] was 6300 nM. Besides, the “Rf, resistance factor … 41McisR6/41M” value in the experiment on 41McisR6 cells [2] is reported as less than 1. Moreover, in experiment [10], the highest non-toxic concentration was determined as 4 µM. Besides, in the experiment with CH1cisR6 cells [3], the “Rf, resistance factor … CH1cisR6/CH1” value was less than 1.

The IC50 is the concentration that inhibits the measured activity by half.
